Results on 14 molecules are retold here after ChEMBL document CHEMBL2321667, “Imidazopyridine-Based Fatty Acid Synthase Inhibitors That Show Anti-HCV Activity and in Vivo Target Modulation” (ACS Med Chem Lett, 2013).

Some results are limits rather than exact numbers.

One series has as its target Fatty acid synthase (Rattus norvegicus, UniProt P12785).
A further series has as its system Hepatitis C virus. Put plainly: microbe, parasite or virus in culture. To be noted: genotype 1b, Huh-7, 72 h.
The nature of series [1]: in vitro. Particulars: human, huh-7.
The nature of series [2]: in vitro. Particulars: dog, MDCK.
The nature of series [3]: in vitro. To be noted: plasma.

Chain of Fatty acid synthase (P12785 whole entry): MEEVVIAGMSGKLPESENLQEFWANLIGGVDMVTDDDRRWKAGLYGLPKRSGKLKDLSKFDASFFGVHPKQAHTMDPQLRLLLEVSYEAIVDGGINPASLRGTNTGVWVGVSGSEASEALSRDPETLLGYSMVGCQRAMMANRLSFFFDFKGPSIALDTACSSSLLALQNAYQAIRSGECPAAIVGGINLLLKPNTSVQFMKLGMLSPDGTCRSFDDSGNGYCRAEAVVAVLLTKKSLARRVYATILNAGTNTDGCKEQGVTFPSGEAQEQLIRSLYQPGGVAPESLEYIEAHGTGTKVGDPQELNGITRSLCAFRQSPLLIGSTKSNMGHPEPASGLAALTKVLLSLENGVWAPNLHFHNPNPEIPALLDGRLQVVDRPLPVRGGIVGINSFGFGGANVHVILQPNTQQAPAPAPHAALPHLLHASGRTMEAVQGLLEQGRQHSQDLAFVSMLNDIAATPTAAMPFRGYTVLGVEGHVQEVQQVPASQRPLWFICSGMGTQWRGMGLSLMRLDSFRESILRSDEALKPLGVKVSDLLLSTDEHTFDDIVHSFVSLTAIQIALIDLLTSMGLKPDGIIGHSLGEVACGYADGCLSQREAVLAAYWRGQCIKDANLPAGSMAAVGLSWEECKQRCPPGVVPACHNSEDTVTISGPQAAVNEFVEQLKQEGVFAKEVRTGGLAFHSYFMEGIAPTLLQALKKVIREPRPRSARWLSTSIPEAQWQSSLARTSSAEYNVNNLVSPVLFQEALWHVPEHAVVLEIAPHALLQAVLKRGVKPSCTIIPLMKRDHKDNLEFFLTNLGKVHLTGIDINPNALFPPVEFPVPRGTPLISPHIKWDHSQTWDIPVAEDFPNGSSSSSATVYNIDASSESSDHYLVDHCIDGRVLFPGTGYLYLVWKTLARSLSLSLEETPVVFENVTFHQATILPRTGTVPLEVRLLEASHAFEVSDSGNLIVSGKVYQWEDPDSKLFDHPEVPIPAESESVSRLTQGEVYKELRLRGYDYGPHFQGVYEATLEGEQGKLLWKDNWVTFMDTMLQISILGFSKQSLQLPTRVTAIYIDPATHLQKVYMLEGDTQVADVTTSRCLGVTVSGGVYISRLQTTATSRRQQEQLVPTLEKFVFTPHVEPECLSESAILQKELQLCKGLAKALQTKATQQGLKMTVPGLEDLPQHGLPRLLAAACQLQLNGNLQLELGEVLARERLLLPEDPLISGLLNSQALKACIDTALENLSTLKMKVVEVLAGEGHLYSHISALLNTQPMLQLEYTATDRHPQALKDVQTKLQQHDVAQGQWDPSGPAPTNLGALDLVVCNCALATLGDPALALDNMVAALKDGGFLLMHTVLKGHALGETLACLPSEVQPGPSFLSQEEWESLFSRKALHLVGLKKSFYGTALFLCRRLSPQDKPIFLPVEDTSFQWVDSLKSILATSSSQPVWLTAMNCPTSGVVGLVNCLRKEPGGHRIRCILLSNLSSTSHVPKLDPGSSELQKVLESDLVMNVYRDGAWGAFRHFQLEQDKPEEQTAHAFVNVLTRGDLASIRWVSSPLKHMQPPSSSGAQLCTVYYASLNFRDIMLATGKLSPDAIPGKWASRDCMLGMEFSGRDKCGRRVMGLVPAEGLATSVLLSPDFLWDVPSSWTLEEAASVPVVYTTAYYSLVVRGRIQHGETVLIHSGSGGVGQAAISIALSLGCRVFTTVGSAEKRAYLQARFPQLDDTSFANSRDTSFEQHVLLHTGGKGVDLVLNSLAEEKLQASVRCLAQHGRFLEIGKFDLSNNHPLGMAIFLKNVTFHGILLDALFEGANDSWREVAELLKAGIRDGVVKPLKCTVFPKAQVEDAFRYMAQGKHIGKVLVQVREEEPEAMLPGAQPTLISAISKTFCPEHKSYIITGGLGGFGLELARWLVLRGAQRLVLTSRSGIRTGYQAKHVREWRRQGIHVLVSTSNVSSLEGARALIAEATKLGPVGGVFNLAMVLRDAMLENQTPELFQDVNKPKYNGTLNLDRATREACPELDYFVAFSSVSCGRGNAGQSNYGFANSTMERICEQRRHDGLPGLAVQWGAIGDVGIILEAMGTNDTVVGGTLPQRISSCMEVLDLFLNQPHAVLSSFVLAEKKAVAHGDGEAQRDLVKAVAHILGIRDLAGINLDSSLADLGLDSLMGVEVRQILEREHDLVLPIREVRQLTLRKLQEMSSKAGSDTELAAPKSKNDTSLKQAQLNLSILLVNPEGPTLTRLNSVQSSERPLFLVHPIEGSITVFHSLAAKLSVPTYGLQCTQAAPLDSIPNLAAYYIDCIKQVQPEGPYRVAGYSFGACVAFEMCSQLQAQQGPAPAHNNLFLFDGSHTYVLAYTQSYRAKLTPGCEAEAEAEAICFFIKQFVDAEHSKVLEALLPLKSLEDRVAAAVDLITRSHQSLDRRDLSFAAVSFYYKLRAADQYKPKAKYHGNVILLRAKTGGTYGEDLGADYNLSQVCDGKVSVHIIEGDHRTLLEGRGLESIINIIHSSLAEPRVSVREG

The IC50 is the midpoint of a concentration-inhibition curve. Read a low IC50 as inhibition by little substance. With `Cc1ccc(C(=O)N2CCC(c3ccc(C#N)cc3)CC2)cc1-c1nc2ccccc2[nH]1`, the IC50 on Fatty acid synthase and with Hepatitis C virus was more than 50000 nM each time.
Broadly, the EC50 is the concentration needed to bring the measured effect to its halfway point. `N#Cc1ccc(C2CCN(C(=O)c3cccc(-c4nc5cc(N6CCCC6)ncc5[nH]4)c3)CC2)cc1` came in with an IC50 against Fatty acid synthase of 2950 nM. This molecule had an EC50 with Hepatitis C virus of 550 nM. In the series “in vitro [1]”, the CC50 at 72 h is more than 3000 nM.
`Cc1ccc(C(=O)N2CCC(c3ccc(C#N)cc3)CC2)cc1NC(=O)c1ccc(N2CCCC2)nc1` yielded an IC50 on Fatty acid synthase of 3970 nM.
Molecule `Cc1cc(C(=O)N2CCC(c3ccc(C#N)cc3)CC2)cc(-c2nc3cc(N4CCCC4)ncc3[nH]2)c1` yielded an EC50 in the series with Hepatitis C virus of more than 10000 nM. Besides, the CC50 at 72 h in “in vitro [1]” is more than 10000 nM.
By Papp is commonly meant a coefficient for how fast a substance crosses the barrier. The low end stands for slow passage, the high end for fast passage. The term half-life denotes the time needed for the level to fall by half in the phase considered. Read a low half-life as rapid decline. In “in vitro [2]”, `Cc1ccc(C(=O)N2CCC(c3ccc(C#N)cc3)CC2)cc1-c1nc2cc(N3CCCC3)ncc2[nH]1` returned a Papp of 8 ×10⁻⁶ cm/s. In “in vitro [3]”, this molecule gave a half-life of more than 10 h. In addition, the EC50 in the series on Hepatitis C virus was determined as 175 nM. For the same molecule, the CC50 at 72 h in the series “in vitro [1]” was more than 20000 nM.
As for `Cc1ccc(C(=O)N2CCC(c3ccc(C#N)cc3)CC2)cc1-c1nc2ccncc2[nH]1`, the IC50 on Fatty acid synthase and with Hepatitis C virus was more than 50000 nM each time.
As to `Cc1ccc(C(=O)N2CCC(c3ccc(C#N)cc3)CC2)cc1-c1nc2cc(N3CCC3)ncc2[nH]1`, the response in the series with Hepatitis C virus was half-maximal at 91 nM (EC50). In “in vitro [1]”, this molecule came in with a CC50 at 72 h of more than 20000 nM.
Molecule `Cc1c(C(=O)N2CCC(c3ccc(C#N)cc3)CC2)cccc1-c1nc2cc(N3CCCC3)ncc2[nH]1` displayed an EC50 with Hepatitis C virus of more than 10000 nM. The molecule further showed a CC50 at 72 h in the series “in vitro [1]” of 1900 nM.
As to `Cc1ccc(C(=O)N2CCC(c3ccc(C#N)cc3)CC2)cc1-c1nc2cc(N3CCN(C)CC3)ncc2[nH]1`, the EC50 in the series with Hepatitis C virus was 830 nM. The molecule further returned a CC50 at 72 h in “in vitro [1]” of 15000 nM.
In turn, `Cc1cc(C)c(-c2nc3nc(N4CCC4)ccc3[nH]2)cc1C(=O)N1CCC(c2ccc(C#N)cc2)CC1` showed an EC50 with Hepatitis C virus of 310 nM. In the series “in vitro [1]”, this molecule returned a CC50 at 72 h of more than 3000 nM.
In turn, `COCCN(C)c1cc2nc(-c3cc(C(=O)N4CCC(c5ccc(C#N)cc5)CC4)c(C)cc3C)[nH]c2cn1` returned an IC50 against Fatty acid synthase of 316 nM. This molecule also came in with an EC50 with Hepatitis C virus of 84 nM. Moreover, the CC50 at 72 h in the series “in vitro [1]” was more than 20000 nM.
`Cc1cc(C)c(-c2nc3cc(S(C)(=O)=O)cnc3[nH]2)cc1C(=O)N1CCC(c2ccc(C#N)cc2)CC1` returned an IC50 against Fatty acid synthase of 3850 nM. For the same molecule, the response in the series on Hepatitis C virus was half-maximal at 130 nM (EC50). Moreover, the CC50 at 72 h in “in vitro [1]” is more than 20000 nM.
In the series on Hepatitis C virus, `Cc1ccc(-c2nc3cc(N4CCCC4)ncc3[nH]2)cc1C(=O)N1CCC(c2ccc(C#N)cc2)CC1` came in with an EC50 of 150 nM. Further, the CC50 at 72 h in “in vitro [1]” came to 8600 nM.
For `Cc1cc(C)c(-c2nc3cc(N4CCOCC4)ncc3[nH]2)cc1C(=O)N1CCC(c2ccc(C#N)cc2)CC1` the same measures were 40 nM and more than 3000 nM.
